For this experiment, the system named is Aβ 42 Production. The experiment is described as follows: Quantification of Aβ peptide in culture of neurons from rat fetus brain (Aβ ELISA). Format: cell-based. The conditions noted are these: Neuron, 72 h; rat primary neuronal culture (embryonic day 18 Wistar rat cerebral cortex), cultured three days after addition of the compound, Aβx-42 ELISA of the medium; read-out: Activity for reducing Aβ 42 Production IC50. As to the method:
Quantification of Aβ Peptide in Culture of Neurons from Rat Fetus Brain
(1) Rat Primary Neuronal Culture
Primary neuronal cultures were prepared from the cerebral cortex of embryonic day 18 Wistar rats (Charles River Japan, Yokohama, Japan). Specifically, the embryos were aseptically removed from pregnant rats under ether anesthesia. The brain was isolated from the embryo and immersed in an ice-cold L-15 medium (Invitrogen Corp. Cat #11415-064, Carlsbad, Calif., USA, or SIGMA L1518, for example). The cerebral cortex was collected from the isolated brain under a stereoscopic microscope. The cerebral cortex fragments collected were enzymatically treated in an enzyme solution containing 0.25% trypsin (Invitrogen Corp. Cat #15050-065, Carlsbad, Calif., USA) and 0.01% DNase (Sigma D5025, St. Louis, Mo., USA) at 37° C. for 30 minutes to disperse the cells. Here, the enzymatic reaction was stopped by adding inactivated horse serum to the solution. The enzymatically treated solution was centrifuged at 1,500 rpm for five minutes to remove the supernatant. 5 to 10 mL of a medium was added to the resulting cell mass. Neurobasal medium (Invitrogen Corp. Cat #21103-049, Carlsbad, Calif., USA) supplemented with 2% B27 supplement (Invitrogen Corp. Cat #17504-044, Carlsbad, Calif., USA), 25 μM 2-mercaptoethanol (2-ME, WAKO Cat #139-06861, Osaka, Japan), 0.5 mM L-glutamine (Invitrogen Corp. Cat #25030-081, Carlsbad, Calif., USA), and Antibiotics-Antimycotics (Invitrogen Corp. Cat #15240-062, Carlsbad, Calif., USA) was used as the medium (Neurobasal/B27/2-ME). However, the above Neurobasal medium not supplemented with 2-ME (Neurobasal/B27) was used for the assay. The cells were redispersed by mild pipetting of the cell mass to which the medium was added. The cell dispersion was filtered through a 40-μm nylon mesh (Cell Strainer, Cat #35-2340, Becton Dickinson Labware, Franklin Lakes, N.J., USA) to remove the remaining cell mass, and thus a neuronal cell suspension was obtained. The neuronal cell suspension was diluted with the medium and then plated in a volume of 100 μl/well at an initial cell density of 5×10^5 cells/cm^2 in a 96-well polystyrene culture plate pre-coated with poly-L or D-lysine (Falcon Cat #35-3075, Becton Dickinson Labware, Franklin Lakes, N.J., USA coated with poly-L-lysine using the method shown below, or BIOCOAT™ cell environments Poly-D-lysine cell ware 96-well plate, Cat #35-6461, Becton Dickinson Labware, Franklin Lakes, N.J., USA). Poly-L-lysine coating was carried out as follows. 100 μg/ml of a poly-L-lysine (SIGMA P2636, St. Louis, Mo., USA) solution was aseptically prepared with a 0.15 M borate buffer (pH 8.5). 100 μl/well of the solution was added to the 96-well polystyrene culture plate and incubated at room temperature for one or more hours or at 4° C. overnight or longer. The coated 96-well polystyrene culture plate was washed with sterile water four or more times, and then dried or rinsed with, for example, sterile PBS or medium, and used for cell plating. The plated cells were cultured in the culture plate at 37° C. in 5% CO2-95% air for one day. Then, the total amount of the medium was replaced with a fresh Neurobasal/B27/2-ME medium, and then the cells were cultured for further three days.
The drug was added to the culture plate on Day 4 of culture as follows. The total amount of the medium was removed from the wells, and 180 μl/well of Neurobasal medium not containing 2-ME and containing 2% B-27 (Neurobasal/B27) was added thereto. A solution of the test compound in dimethyl sulfoxide (hereinafter abbreviated as DMSO) was diluted with Neurobasal/B27 at 10-fold of the final concentration. 20 μl/well of the dilution was added to and sufficiently mixed with the medium. The final DMSO concentration was 1% or less. Only DMSO was added to the control group.
The cells were cultured for three days after addition of the compound, and the total amount of the medium was collected. […]

Drawing on US20070117839A1, “Two cyclic cinnamide compound” (Eisai R&D Management Co., Ltd., priority 2005, published 2007), this text covers IC50 for 21 compounds.

For `COc1cc(/C=C2\CC[C@H]3CC[C@@H](c4cc(F)c(F)c(F)c4)N3C2=O)ccc1-n1cnc(C)c1` [Example 3, (E)-(3S)-(3,4,5-trifluorophenyl)-6-[3-methoxy-4-(4-methyl-1H-imidazol-1-yl)benzylidene]-(9S)-hexahydroindolizin-5-one], the 50% inhibitory concentration (IC50) amounted to 63 nM. The same measure for `COc1cc(/C=C2\CC[C@H]3CC[C@@H](c4ccc(F)c(F)c4)N3C2=O)ccc1-n1cnc(C)c1` [Example 6, (E)-(3S)-(3,4-difluorophenyl)-6-[3-methoxy-4-(4-methyl-1H-imidazol-1-yl)benzylidene]-(9S)-hexahydroindolizin-5-one]: 120 nM. The same measure for `COc1cc(/C=C2\CC[C@H]3CCC[C@@H](c4ccc(F)cc4)N3C2=O)ccc1-n1cnc(C)c1` [Example 8, (E)-(6S,9aR)-6-(4-fluorophenyl)-3-[3-methoxy-4-(4-methyl-1H-imidazol-1-yl)benzylidene]octahydroquinolizin-4-one]: 73 nM. In the case of `COc1cc(/C=C2\CC[C@@H]3C[C@H](O)C[C@@H](c4ccc(F)cc4)N3C2=O)ccc1-n1cnc(C)c1` [Example 11, (E)-(6S,8S,9aR)-6-(4-fluorophenyl)-8-hydroxy-3-[3-methoxy-4-(4-methyl-1H-imidazol-1-yl)benzylidene]octahydroquinolizin-4-one] it was 97 nM; in that of `COc1cc(/C=C2\CC[C@@H]3CCC[C@@H](c4cc(F)c(F)c(F)c4)N3C2=O)ccc1-n1cnc(C)c1` [Example 13, (E)-(6S,9aS)-6-(3,4,5-trifluorophenyl)-3-[3-methoxy-4-(4-methyl-1H-imidazol-1-yl)benzylidene]octahydroquinolizin-4-one], 91 nM; in that of `COc1cc(/C=C2\CC[C@@H]3C[C@H](O)C[C@@H](c4cc(F)c(F)c(F)c4)N3C2=O)ccc1-n1cnc(C)c1` [Example 15, (E)-(6S,8S,9aR)-6-(3,4,5-trifluorophenyl)-8-hydroxy-3-[3-methoxy-4-(4-methyl-1H-imidazol-1-yl)benzylidene]octahydroquinolizin-4-one], 80 nM. On to `COc1cc(/C=C2\CC[C@@H]3C[C@@H](O)C[C@@H](c4cc(F)c(F)c(F)c4)N3C2=O)ccc1-n1cnc(C)c1` [Example 17, (E)-(6S,8R,9aR)-6-(3,4,5-trifluorophenyl)-8-hydroxy-3-[3-methoxy-4-(4-methyl-1H-imidazol-1-yl)benzylidene]octahydroquinolizin-4-one], for which the 50% inhibitory concentration (IC50) is 68 nM.

In the case of `COc1cc(/C=C2\CC[C@@H]3CCC[C@@H](c4ccc(F)cc4)N3C2=O)ccc1-n1cnc(C)c1` [Example 19, (E)-(6S,9aS)-6-(4-fluorophenyl)-3-[3-methoxy-4-(4-methyl-1H-imidazol-1-yl)benzylidene]octahydroquinolizin-4-one], the IC50 was 129 nM. The same measure for `COc1ccc([C@@H]2CCC[C@@H]3CC/C(=C\c4ccc(-n5cnc(C)c5)c(OC)c4)C(=O)N32)cc1` [Example 30, (E)-(6S,9aR)-3-[3-methoxy-4-(4-methyl-1H-imidazol-1-yl)benzylidene]-6-(4-methoxyphenyl)octahydroquinolizin-4-one]: 109 nM; for `COc1cc(/C=C2\CC[C@H]3CCC[C@@H](c4cccc(F)c4)N3C2=O)ccc1-n1cnc(C)c1` [Example 41, (E)-(6S,9aR)-6-(3-fluorophenyl)-3-[3-methoxy-4-(4-methyl-1H-imidazol-1-yl)benzylidene]octahydroquinolizin-4-one]: 47 nM. The same measure for `COc1cc(/C=C2\CC[C@H]3CCC[C@@H](c4ccccc4F)N3C2=O)ccc1-n1cnc(C)c1` [Example 43, (E)-(6S,9aR)-6-(2-fluorophenyl)-3-[3-methoxy-4-(4-methyl-1H-imidazol-1-yl)benzylidene]octahydroquinolizin-4-one]: 66 nM; for `COc1cc(/C=C2\CC[C@@H]3CCC[C@H](c4ccccc4F)N3C2=O)ccc1-n1cnc(C)c1` [Example 44, (E)-(6R,9aS)-6-(2-fluorophenyl)-3-[3-methoxy-4-(4-methyl-1H-imidazol-1-yl)benzylidene]octahydroquinolizin-4-one]: 94 nM; for `COc1cc(/C=C2\CC[C@@H]3C[C@@](C)(O)C[C@@H](c4ccc(F)cc4)N3C2=O)ccc1-n1cnc(C)c1` [Example 45, (E)-(6S,8R,9aR)-6-(4-fluorophenyl)-8-hydroxy-3-[3-methoxy-4-(4-methyl-1H-imidazol-1-yl)benzylidene]-8-methyloctahydroquinolizin-4-one]: 160 nM. As for `COc1cc(/C=C2\CC[C@@H]3CC(C)=C[C@@H](c4ccc(F)cc4)N3C2=O)ccc1-n1cnc(C)c1` [Example 49, (E)-(6S,9aR)-6-(4-fluorophenyl)-3-[3-methoxy-4-(4-methyl-1H-imidazol-1-yl)benzylidene]-8-methyl-1,2,3,6,9,9a-hexahydroquinolizin-4-one], the IC50 was found to be 210 nM. As for `COc1cc(/C=C2\C[C@H]3CC[C@@H](c4ccc(F)c(F)c4)N3C2=O)ccc1-n1cnc(C)c1` [Example 54, (E)-(5S,7aR)-5-(3,4-difluorophenyl)-2-[3-methoxy-4-(4-methyl-1H-imidazol-1-yl)benzylidene]hexahydropyrrolidin-3-one], the IC50 is 254 nM. The same measure for `COc1cc(/C=C2\CC[C@H]3CC[C@@H](c4ccc(Cl)cc4)N3C2=O)ccc1-n1cnc(C)c1` [Example 56, (E)-(3S,8aS)-3-(4-chlorophenyl)-6-[3-methoxy-4-(4-methyl-1H-imidazol-1-yl)benzylidene]hexahydroindolizin-5-one]: 55 nM; for `COc1cc(/C=C2\CC[C@H]3CC[C@@H](c4cc(F)c(F)cc4F)N3C2=O)ccc1-n1cnc(C)c1` [Example 57, (E)-(3S,8aS)-3-(2,4,5-trifluorophenyl)-6-[3-methoxy-4-(4-methyl-1H-imidazol-1-yl)benzylidene]hexahydroindolizin-5-one]: 62 nM; for `COc1cc(/C=C2\CC[C@H]3CC[C@@H](c4ccc(F)c(F)c4F)N3C2=O)ccc1-n1cnc(C)c1` [Example 58, (E)-(3S,8aS)-3-(2,3,4-trifluorophenyl)-6-[3-methoxy-4-(4-methyl-1H-imidazol-1-yl)benzylidene]hexahydroindolizin-5-one]: 73 nM. In the case of `COc1cc(/C=C2\CC[C@H]3CC[C@@H](c4cc(F)cc(F)c4)N3C2=O)ccc1-n1cnc(C)c1` [Example 64, (E)-(3S,8aS)-3-(3,5-difluorophenyl)-6-[3-methoxy-4-(4-methyl-1H-imidazol-1-yl)benzylidene]hexahydroindolizin-5-one] it was 67 nM; in that of `COc1cc(/C=C2\CC[C@@H]3CCC[C@@H](c4ccc(F)c(F)c4)N3C2=O)ccc1-n1cnc(C)c1` [Example 65, (E)-(6S,9aS)-6-(3,4-difluorophenyl)-3-[3-methoxy-4-(4-methyl-1H-imidazol-1-yl)benzylidene]octahydroquinolizin-4-one], 68 nM; in that of `COc1cc(/C=C2\CC[C@H]3COC[C@@H](c4cc(F)c(F)c(F)c4)N3C2=O)ccc1-n1cnc(C)c1` [Example 83, (E)-(4R,9aS)-7-[3-methoxy-4-(4-methyl-1H-imidazol-1-yl)benzylidene]-4-(3,4,5-trifluorophenyl)hexahydropyrido[2,1-c][1,4]oxazin-6-one], 37 nM.
